Data on three compounds can be found in US20250018066A1, “Ophthalmic dye composition” (Vitreq B.V., priority 2016, published 2025).

The test system of one data set is retina. Put plainly: Staining of porcine retina with dye preparations, contrast quantified from photographs. Conditions: in words; compared with prior art agents like PEG. The source says: The eyes were kept on ice until used.
The upper part of the eye, including the cornea, iris, and lens, was removed with an orbital section. The vitreous body was removed to get access to the retina. The retina was rinsed three times with phosphate-buffered saline (PBS). Dye solutions were applied to the retina for 30 seconds, and the retina was then washed three times with PBS.
As an example of the visual impression of the stained retina, photos were taken. For photographic recording of the result of the staining, the staining was limited by applying a glass tube of a diameter of 10 mm. Care was taken that no dye could reach the cellular layer of the retina. […]
As an example of quantification, the pictures in FIGS. 1A-J were quantified by measuring the optical densities (expressed as grey values on a scale from 0 (black) to 255 (white)) of a rectangular area within the stained portion of the retina and a rectangular area outside the stained portion as background (ensuring that no blood vessels where present in the rectangular areas), and calculating the ratio of the grey values of the background to that of the stain. […] Toxicity was measured in ARPE cells. […] Toxicity is expressed as percent reduction of cell viability in comparison to a control incubated with PBS instead of the dye solution.

The next data set in a line: Density of dye solutions. Format: physicochemical. The method, then:
(§1) Density and viscosity can be changed by the addition of diglycerol or a gadolinium complex or a combination of both. For sinking of the dye solution to the bottom of the eye, density is more important than viscosity; the latter reduces, however, possible mixing for solutions which sink slowly. The density of dye solutions can be increased from 1.003 grams per milliliter (at 25° C.) to 1.028, when 10 volume % of a 0.5 M solution of gadopentetate is added to a final concentration of gadopentetate of 0.05 M, and to 1.048 when 20 volume % of a 0.5 M solution of gadopentetate is added to a final concentration of 0.10 M. The resulting viscosities are 1.125 mPa·s and 1.258 mPa·s, respectively. For a 5% addition of named gadopentetate solution, a density of 1.016 gram per milliliter and a viscosity of 1.117 mPa·s is obtained.

A short description of data set [1]: Osmotic pressure contribution of density-increasing agent. Format: physicochemical. Conditions: in words.
Data set [2] is described as follows: Viscosity of dye solutions. In kind it is physicochemical. The method, then:
as §1

[3] abbreviates: 10 volume % of 0.5 M solution added, final concentration 0.05 M.
Setting [4] is: 20 volume % of 0.5 M solution added, final concentration 0.10 M.

What is called viscosity is the resistance of a fluid to flow.

`OCC(O)COCC(O)CO` (stereo not drawn) [diglycerol]: the “effect of density agent on staining efficiency” value with retina was “does not decrease staining efficiency”. Besides, in the data set “Density of dye solutions” (addition of 5 weight percent), the density amounted to 1.020 grams per milliliter. The figures for the “osmotic pressure / osmotic activity” value in data set [1] and in data set [1] (listed as DG) were “without increasing osmotic pressure substantially” and “not even osmotically active”, respectively. Also, the viscosity in data set [2] (addition of 5 weight percent) worked out at 1.191 mPa·s.

For the compound `O=C([O-])CN(CCN(CC(=O)[O-])CC(=O)O)CCN(CC(=O)[O-])CC(=O)O.[Gd+3]` [gadopentetate], the values for the density in “Density of dye solutions” (5% addition of 0.5 M solution), in “Density of dye solutions” (setting [3]) and in the data set “Density of dye solutions” (setting [4]) were 1.016 gram per milliliter, 1.028 grams per milliliter and 1.048 grams per milliliter, respectively. The viscosity is 1.117 mPa·s in data set [2] (5% addition of 0.5 M solution), 1.125 mPa·s in data set [2] (setting [3]) and 1.258 mPa·s in data set [2] (setting [4]).

Regarding `OCC(O)COCC(O)COCC(O)CO` (stereo not drawn) [triglycerol], in data set [1], the “osmotic pressure / osmotic activity” value was “without increasing osmotic pressure substantially”.
